# Data taken from ChEMBL document CHEMBL3526135, “Induction of xenobiotic receptors, transporters, and drug metabolizing enzymes by oxycodone” (Drug Metab Dispos, 2013).
# Tests used:
# [1] = target: T1, Nuclear receptor subfamily 1 group I member 3 (Mus musculus, UniProt O35627); test: Transactivation of mouse CAR1 transfected in human HepG2 cells assessed as CYP2B6 expression at 1 to 30 uM after 24 hrs by luciferase reporter gene assay; assay type: ADME, cell-based; conditions: hepg2, 24 h
# T1 sequence (O35627 whole entry): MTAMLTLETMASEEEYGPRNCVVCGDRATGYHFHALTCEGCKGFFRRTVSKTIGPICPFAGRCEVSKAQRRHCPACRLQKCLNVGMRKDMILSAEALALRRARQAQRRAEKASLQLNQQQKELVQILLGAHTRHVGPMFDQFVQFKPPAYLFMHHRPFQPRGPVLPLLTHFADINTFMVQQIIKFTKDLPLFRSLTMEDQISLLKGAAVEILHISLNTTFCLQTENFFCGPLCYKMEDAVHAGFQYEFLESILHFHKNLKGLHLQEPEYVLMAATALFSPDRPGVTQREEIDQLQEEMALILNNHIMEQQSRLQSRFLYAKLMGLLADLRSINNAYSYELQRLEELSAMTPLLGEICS
# [2] = target: T2, Nuclear receptor subfamily 1 group I member 2 (Rattus norvegicus, UniProt Q9R1A7); test: Transactivation of rat PXR at 0.1 to 30 uM after 24 to 48 hrs by cell-based luciferase reporter gene assay; assay type: ADME
# T2 sequence (Q9R1A7 whole entry): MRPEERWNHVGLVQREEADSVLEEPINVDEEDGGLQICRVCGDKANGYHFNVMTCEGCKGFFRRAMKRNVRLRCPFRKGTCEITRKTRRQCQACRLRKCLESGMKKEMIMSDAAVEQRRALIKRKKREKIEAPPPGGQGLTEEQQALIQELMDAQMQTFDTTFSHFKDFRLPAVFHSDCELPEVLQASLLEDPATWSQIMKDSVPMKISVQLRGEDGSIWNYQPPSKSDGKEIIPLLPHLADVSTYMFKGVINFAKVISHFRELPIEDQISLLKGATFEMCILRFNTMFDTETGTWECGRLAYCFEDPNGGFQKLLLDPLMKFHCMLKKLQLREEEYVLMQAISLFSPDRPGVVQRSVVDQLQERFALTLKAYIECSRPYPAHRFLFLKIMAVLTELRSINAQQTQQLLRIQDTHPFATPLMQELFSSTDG
# [3] = Transactivation of human CAR1 Ala retention mutant transfected in human HepG2 cells assessed as CYP2B6 expression at 1 to 30 uM after 24 hrs by luciferase reporter gene assay; assay type: ADME, cell-based; conditions: hepg2, 24 h
# [4] = target: T3, Nuclear receptor subfamily 1 group I member 3 (Homo sapiens, UniProt Q14994); test: Transactivation of human CAR1 transfected in human HepG2 cells assessed as CYP2B6 expression at 1 to 30 uM after 24 hrs by luciferase reporter gene assay; assay type: ADME, cell-based; conditions: hepg2, 24 h
# T3 sequence (Q14994 whole entry): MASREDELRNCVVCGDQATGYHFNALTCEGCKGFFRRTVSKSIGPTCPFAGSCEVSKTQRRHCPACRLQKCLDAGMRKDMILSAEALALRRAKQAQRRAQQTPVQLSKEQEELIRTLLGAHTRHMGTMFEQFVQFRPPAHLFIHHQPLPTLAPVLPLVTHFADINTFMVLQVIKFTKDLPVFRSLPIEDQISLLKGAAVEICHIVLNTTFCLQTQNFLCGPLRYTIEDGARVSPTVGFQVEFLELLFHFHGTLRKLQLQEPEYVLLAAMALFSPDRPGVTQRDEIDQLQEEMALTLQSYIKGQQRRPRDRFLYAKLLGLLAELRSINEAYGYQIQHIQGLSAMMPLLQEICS
# [5] = target: T4, Aryl hydrocarbon receptor (Homo sapiens, UniProt P35869); test: Transactivation of human AhR at 0.1 to 30 uM after 24 to 48 hrs by cell-based luciferase reporter gene assay
# T4 sequence (P35869 whole entry): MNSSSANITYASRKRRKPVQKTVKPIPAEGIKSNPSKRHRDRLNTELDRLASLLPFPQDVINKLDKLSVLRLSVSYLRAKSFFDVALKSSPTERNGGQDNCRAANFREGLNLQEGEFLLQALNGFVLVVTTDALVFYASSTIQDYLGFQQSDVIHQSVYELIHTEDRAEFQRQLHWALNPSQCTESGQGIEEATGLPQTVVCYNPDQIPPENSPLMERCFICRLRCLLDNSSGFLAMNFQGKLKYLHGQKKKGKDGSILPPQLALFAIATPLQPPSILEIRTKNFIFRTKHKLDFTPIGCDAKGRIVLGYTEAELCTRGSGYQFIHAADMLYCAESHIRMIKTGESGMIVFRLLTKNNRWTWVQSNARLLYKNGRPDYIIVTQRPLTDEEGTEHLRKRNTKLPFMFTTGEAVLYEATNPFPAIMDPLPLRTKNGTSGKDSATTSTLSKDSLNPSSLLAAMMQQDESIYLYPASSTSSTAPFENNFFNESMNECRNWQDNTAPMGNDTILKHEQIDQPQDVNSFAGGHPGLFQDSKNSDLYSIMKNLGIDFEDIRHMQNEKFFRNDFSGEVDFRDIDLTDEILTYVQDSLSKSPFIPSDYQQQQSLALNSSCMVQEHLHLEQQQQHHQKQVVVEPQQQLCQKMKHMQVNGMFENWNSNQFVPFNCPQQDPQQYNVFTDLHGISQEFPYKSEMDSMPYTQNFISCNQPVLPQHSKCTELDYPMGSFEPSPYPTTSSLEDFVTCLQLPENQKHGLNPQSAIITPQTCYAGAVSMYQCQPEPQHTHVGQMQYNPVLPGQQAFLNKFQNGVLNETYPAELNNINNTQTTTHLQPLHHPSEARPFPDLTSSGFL
# [6] = target: T3, Nuclear receptor subfamily 1 group I member 3; test: Transactivation of human CAR1 transfected in human primary hepatocytes assessed as nuclear translocation at 30 uM by confocal laser scanning microscopy; assay type: cell-based, Hepatocyte
# [7] = target: T3, Nuclear receptor subfamily 1 group I member 3; test: Transactivation of human CAR1 transfected in human primary hepatocytes assessed as nuclear translocation at 1 mM by confocal laser scanning microscopy; assay type: cell-based, Hepatocyte; conditions: 1000 µM
SMILES,Activity [1],Activity [2],Activity [3],Activity [4],Activity [5],Activity [6],Activity [7]
COc1ccc2c3c1O[C@H]1C(=O)CC[C@@]4(O)[C@@H](C2)NCC[C@]314,Not Active,Not Active,Not Active,Active,Not Active,–,–
COc1ccc2c3c1O[C@H]1C(=O)CC[C@@]4(O)[C@@H](C2)N(C)CC[C@]314 [OXYCODONE],Not Active,Not Active,Not Active,Active,Not Active,Not Active,–
CN1CC[C@]23c4c5ccc(O)c4O[C@H]2C(=O)CC[C@@]3(O)[C@H]1C5 [OXYMORPHONE],Not Active,Not Active,Not Active,Active,Not Active,–,–
CCC1(c2ccccc2)C(=O)NC(=O)NC1=O [PHENOBARBITAL],–,–,–,–,–,–,Active
